Data as given in US20250059172A1, “INDAZOLE COMPOUND AND PHARMACEUTICAL” (NIPPON SHINYAKU CO., LTD., priority 2021, published 2025).
Structures can show the parent of a compound that is named as a salt.

Assays:
human A549 cells = test: Inhibition test of PGE2 production using human A549 cells; type: cell-based; settings: IL-1β stimulated A549 cells, 24 h, PGE2 by HTRF, read-out: A549 cell inhibition of PGE2 production IC50
In short: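 A549 cells were preincubated 60 min with compound in RPMI/3% FBS (0.1% DMSO final), then stimulated with IL-1β (5 ng/well) for 24 h at 37°C. PGE2 was measured by HTRF and PGF2a by EIA; activity was normalized to stimulated minus unstimulated controls, and IC50 derived.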

human mPGES-1 = human mPGES-1 (Homo sapiens (Human), UniProt O14684); test: mPGES-1 inhibitory activity test; type: biochemical; settings: for inhibition at 0.01 µM: 10 nM test compound; for inhibition at 0.1 µM: 100 nM test compound; for IC50: microsomes of CHO-K1 cells expressing human mPGES-1, PGH2 1 μM, PGE2 by HTRF, read-out: mPGES-1 inhibition (IC50 nM)
Chain of human mPGES-1 (O14684 whole entry): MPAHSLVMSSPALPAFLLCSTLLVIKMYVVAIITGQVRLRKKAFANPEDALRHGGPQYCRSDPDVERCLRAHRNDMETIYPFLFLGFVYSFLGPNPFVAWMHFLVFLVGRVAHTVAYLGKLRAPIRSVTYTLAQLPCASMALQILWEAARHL
In short: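 PGE2 formation was quantified by HTRF and reported as percent inhibition at 10 and 100 nM compound or as IC50. The 60-second reaction at 4° C used 1 μM PGH2, after a 20-minute 4° C preincubation of compound (1% DMSO final) with glutathione-supplemented (2.5 mM, pH 7.4) microsomes. The microsomes were from transiently transfected CHO-K1 cells expressing human mPGES-1.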

Structure (SMILES)	IC50 (human A549 cells) [nM]	inhibition at 0.01 µM (human mPGES-1) [%]	inhibition at 0.1 µM (human mPGES-1) [%]	IC50 (human mPGES-1) [nM]
CC(C)(C)C(=O)NCc1ccc(C(F)(F)F)c(C(=O)Nc2cccc3c2cnn3-c2ccc(OC(F)(F)F)cc2)c1 [Example 194, 5-{[(2,2-Dimethylpropanoyl)amino]methyl}-N-{1-[4-(trifluoromethoxy)phenyl]-1H-indazol-4-yl}-2-(trifluoromethyl)benzamide]	0.7	62	83	–
Cc1ccc(-n2ncc3c(NC(=O)c4cc(CNS(=O)(=O)C5CC5)ccc4Cl)cccc32)cc1Cl [Example 132, 2-Chloro-N-[1-(3-chloro-4-methylphenyl)-1H-indazol-4-yl]-5-{[(cyclopropylsulfonyl)amino]methyl}benzamide]	1.5	86	–	–
O=C(Nc1cccc2c1cnn2-c1cscn1)c1cc(CNS(=O)(=O)C2CC2)ccc1Cl [Example 193, 2-Chloro-5-{[(cyclopropylsulfonyl)amino]methyl}-N-[1-(1,3-thiazol-4-yl)-1H-indazol-4-yl]benzamide]	33	71	–	–
CC(C)(CO)C(=O)NCc1ccc(Cl)c(C(=O)Nc2cccc3c2cnn3-c2ccc(F)cc2)c1 [Example 156, 2-Chloro-N-[1-(4-fluorophenyl)-1H-indazol-4-yl]-5-([(3-hydroxy-2,2-dimethylpropanoyl)amino]methyl)benzamide]	7.1	63	86	–
O=C(Nc1cccc2c1cnn2-c1cccc(C(F)(F)F)c1)c1cc(CNC(=O)C2(C(F)(F)F)CC2)ccc1Cl [Example 220, 2-Chloro-5-[({[1-(trifluoromethyl)cyclopropyl]carbonyl}amino)methyl]-N-{1-[3-(trifluoromethyl)phenyl]-1H-indazol-4-yl}benzamide]	< 1	74	90	–
COc1cc(-n2ncc3c(NC(=O)c4cc(CNC(=O)CC(C)(C)C)ccc4Cl)cccc32)ccn1 [Example 159, 2-Chloro-5-{[(3,3-dimethylbutanoyl)amino]methyl}-N-[1-(2-methoxypyridin-4-yl)-1H-indazol-4-yl]benzamide]	9.1	55	100	–
CCOc1cccc(-n2ncc3c(NC(=O)c4cc(CNC(=O)C(C)(C)C)ccc4Cl)cccc32)c1 [Example 66, 2-Chloro-5-{[(2,2-dimethylpropanoyl)amino]methyl}-N-[1-(3-ethoxyphenyl)-1H-indazol-4-yl]benzamide]	4	–	–	0.2
COc1cc(-n2ncc3c(NC(=O)c4cc(CNC(=O)C(C)(C)CO)ccc4Cl)cccc32)ccn1 [Example 164, 2-Chloro-5-{[(3-hydroxy-2,2-dimethylpropanoyl)amino]methyl}-N-[1-(2-methoxypyridin-4-yl)-1H-indazol-4-yl]benzamide]	28.4	69	100	–
CC(C)(C)C(=O)NCc1ccc(Cl)c(C(=O)Nc2cccc3c2cnn3CCc2ccccc2)c1 [Example 95, 2-Chloro-5-{[(2,2-dimethylpropanoyl)amino]methyl}-N-[1-(2-phenylethyl)-1H-indazol-4-yl]benzamide]	2.7	–	–	1.2
Cc1cc(-n2ncc3c(NC(=O)c4cc(CNC(=O)C(C)(C)C)ccc4Cl)cccc32)ccn1 [Example 58, 2-Chloro-5-{[(2,2-dimethylpropanoyl)amino]methyl}-N-[1-(2-methylpyridin-4-yl)-1H-indazol-4-yl]benzamide hydrochloride]	5.9	–	–	5.9
O=C(Nc1cccc2c1cnn2-c1ccc(C(F)(F)F)cc1)c1cc(CNC(=O)[C@H]2CC[C@H](O)CC2)ccc1Cl [Example 39, 2-Chloro-5-({[trans-(4-hydroxycyclohexyl)carbonyl]amino}methyl)-N-{1-[4-(trifluoromethyl)phenyl]-1H-indazol-4-yl}benzamide]	5.1	–	–	7.5
COc1cccc(Cn2ncc3c(NC(=O)c4cc(CNC(=O)C(C)(C)C)ccc4Cl)cccc32)c1 [Example 89, 2-Chloro-5-{[(2,2-dimethylpropanoyl)amino]methyl}-N-[1-(3-methoxybenzyl)-1H-indazol-4-yl]benzamide]	20.7	–	–	3.5
COCC(=O)NCc1ccc(Cl)c(C(=O)Nc2cccc3c2cnn3C)c1 [Example 207, 2-Chloro-5-{[(methoxyacetyl)amino]methyl}-N-(1-methyl-1H-indazol-4-yl)benzamide]	303	59	–	–
COc1cncc(-n2ncc3c(NC(=O)c4cc(CNC(=O)C(C)(C)C)ccc4Cl)cccc32)c1 [Example 61, 2-Chloro-5-{[(2,2-dimethylpropanoyl)amino]methyl}-N-[1-(5-methoxypyridin-3-yl)-1H-indazol-4-yl]benzamide hydrochloride]	2.9	–	–	3.5
COC(C)(C)c1ccc(-n2ncc3c(NC(=O)c4cc(CNC(=O)C(C)(C)C)ccc4Cl)cccc32)cn1 [Example 84, 2-Chloro-5-{[(2,2-dimethylpropanoyl)amino]methyl}-N-{1-[6-(2-methoxypropan-2-yl)pyridin-3-yl]-1H-Indazol-4-yl}benzamide hydrochloride]	4.9	–	–	0.8
O=C(Nc1cccc2c1cnn2-c1nccs1)c1cc(CNC(=O)C2CCCC2)ccc1Cl [Example 227, 2-Chloro-5-{[(cyclopentylcarbonyl)amino]methyl}-N-[1-(1,3-thiazol-2-yl)-1H-indazol-4-yl]benzamide]	10	81	–	–
CCOc1ccc(-n2ncc3c(NC(=O)c4cc(CNC(=O)C(C)(C)C)ccc4Cl)cccc32)cc1 [Example 65, 2-Chloro-5-{[(2,2-dimethylpropanoyl)amino]methyl}-N-[1-(4-ethoxyphenyl)-1H-indazol-4-yl]benzamide]	3.6	–	–	2.2
CC(C)(C)C(=O)NCc1ccc(Cl)c(C(=O)Nc2cccc3c2cnn3-c2ccc(C(F)(F)F)cc2)c1 [Example 50, 2-Chloro-5-{[(2,2-dimethylpropanoyl)amino]methyl}-N-{1-[4-(trifluoromethyl)phenyl]-1H-indazol-4-yl}benzamide]	3.5	–	–	14.7
Cn1ncc2c(NC(=O)c3cc(CNC(=O)C4CC4)ccc3Cl)cccc21 [Example 112, 2-Chloro-5-{[(cyclopropylcarbonyl)amino]methyl}-N-(1-methyl-1H-indazol-4-yl)benzamide]	91.1	–	–	12.9
CC(C)Oc1cccc(-n2ncc3c(NC(=O)c4cc(CNC(=O)C(C)(C)C)ccc4Cl)cccc32)c1 [Example 68, 2-Chloro-5-{[(2,2-dimethylpropanoyl)amino]methyl}-N-{1-[3-(propan-2-yloxy)phenyl]-1H-indazol-4-yl}benzamide]	2	–	–	6.7
CC(C)(C)C(=O)NCc1ccc(Cl)c(C(=O)Nc2cccc3c2cnn3-c2ccc(C(F)(F)F)nc2)c1 [Example 77, 2-Chloro-5-{[(2,2-dimethylpropanoyl)amino]methyl}-N-{1-[6-(trifluoromethyl)pyridin-3-yl]-1H-indazol-4-yl}benzamide]	1	–	–	1.1
O=C(Nc1cccc2c1cnn2-c1cccc(OC(F)(F)F)c1)c1cc(CNC(=O)C2(C(F)(F)F)CC2)ccc1Cl [Example 123, 2-Chloro-N-{1-[3-(trifluoromethoxy)phenyl]-1H-indazol-4-yl}-5-[({[1-(trifluoromethyl)cyclopropyl]carbonyl}amino)methyl]benzamide]	5.1	98	–	–
Cc1cc(C)c(Cn2ncc3c(NC(=O)c4cc(CNC(=O)C(C)(C)C)ccc4Cl)cccc32)c(C)c1 [Example 91, 2-Chloro-5-{[(2,2-dimethylpropanoyl)amino]methyl}-N-[1-(2,4,6-trimethylbenzyl)-1H-indazol-4-yl]benzamide]	5.1	–	–	< 1
CC(C)(C)C(=O)NCc1ccc(C(F)(F)F)c(C(=O)Nc2cccc3c2cnn3-c2cccc(OC(F)(F)F)c2)c1 [Example 195, 5-{[(2,2-Dimethylpropanoyl)amino]methyl}-N-{1-[3-(trifluoromethoxy)phenyl]-1H-indazol-4-yl}-2-(trifluoromethyl)benzamide]	0.8	65	84	–
COCC(=O)NCc1ccc(Cl)c(C(=O)Nc2cccc3c2cnn3-c2ccc(C)c(C(F)(F)F)c2)c1 [Example 258, 2-Chloro-5-{[(methoxyacetyl)amino]methyl}-N-{l-[4-methyl-3-(trifluoromethyl)phenyl]-1H-indazol-4-yl}benzamide]	3.2	84	100	–
Cc1ccc(-n2ncc3c(NC(=O)c4cc(CNC(=O)C(C)(C)CO)ccc4Cl)cccc32)cc1C(F)(F)F [Example 259, 2-Chloro-5-{[(3-hydroxy-2,2-dimethylpropanoyl)amino]methyl}-N-{1-[4-methyl-3-(trifluoromethyl)phenyl]-1H-indazol-4-yl}benzamide]	0.5	92	92	–
O=C(Nc1cccc2c1cnn2-c1ccccn1)c1cc(CNC(=O)C2CC2)ccc1Cl [Example 8, 2-Chloro-5-{[(cyclopropylcarbonyl)amino]methyl}-N-[1-(pyridin-2-yl)-1H-indazol-4-yl]benzamide]	11.3	–	–	3.9
